Assay results reported in patent US9326986B2, “Quinazolinone, quinolone and related analogs as sirtuin modulators” (GLAXOSMITHKLINE LLC, priority 2008, dated 2016).

Molecular target: T1, SIRT1 (Homo sapiens, UniProt Q96EB6)
T1 sequence (Q96EB6 1-747): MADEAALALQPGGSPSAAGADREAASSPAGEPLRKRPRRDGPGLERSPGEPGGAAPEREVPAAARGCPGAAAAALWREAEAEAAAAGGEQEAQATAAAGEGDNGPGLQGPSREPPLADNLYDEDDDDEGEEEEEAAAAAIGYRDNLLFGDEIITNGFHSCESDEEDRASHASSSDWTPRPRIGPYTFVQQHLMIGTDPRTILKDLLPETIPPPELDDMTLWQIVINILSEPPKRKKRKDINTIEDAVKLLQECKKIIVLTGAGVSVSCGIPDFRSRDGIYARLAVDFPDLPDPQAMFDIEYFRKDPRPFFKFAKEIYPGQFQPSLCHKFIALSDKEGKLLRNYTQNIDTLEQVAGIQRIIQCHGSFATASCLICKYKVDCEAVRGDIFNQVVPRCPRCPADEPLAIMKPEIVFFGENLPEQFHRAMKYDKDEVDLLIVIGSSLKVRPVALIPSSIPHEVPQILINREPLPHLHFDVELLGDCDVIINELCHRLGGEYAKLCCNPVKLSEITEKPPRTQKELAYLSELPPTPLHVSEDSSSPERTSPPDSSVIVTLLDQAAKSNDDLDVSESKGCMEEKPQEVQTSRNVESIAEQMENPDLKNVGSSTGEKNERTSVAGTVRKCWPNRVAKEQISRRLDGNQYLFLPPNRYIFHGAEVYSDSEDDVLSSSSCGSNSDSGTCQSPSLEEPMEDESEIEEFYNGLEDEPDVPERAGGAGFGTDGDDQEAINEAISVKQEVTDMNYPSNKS
Test: Mass spectrometry based assay to identify modulators of SIRT1 activity (deacetylation of p53-based acetylated peptide)
Assay type: biochemical
Conditions: 10 nM SIRT1, 0.5 μM peptide substrate, 120 μM βNAD+, 25 minutes at 25° C.; for EC1.5 μM: SIRT1 activation

Compound	% Fold Act. (percent maximum fold activation)	EC1.5 μM
Cn1c(-c2ccccn2)nc2c(NC(=O)c3cnccn3)cccc2c1=O [Compound 277]	B (Fold Activation<200%)	C (EC1.5>25 μM)
O=C(Nc1cccc2c(=O)cc(-c3cccc(C(F)(F)F)c3)[nH]c12)c1cscn1 [Compound 405]	A (Fold activation>200%)	A (EC1.5<1.0 μM)
Cn1c(-c2ccc(Cl)cc2)nc2c(C(=O)Nc3ccccn3)cccc2c1=O [Compound 244]	B (Fold Activation<200%)	C (EC1.5>25 μM)
Cn1c(-c2cccc(C(F)(F)F)c2)nc2c(NC(=O)c3cccc(N4CCCC4)n3)cccc2c1=O [Compound 342]	A (Fold activation>200%)	A (EC1.5<1.0 μM)
Cn1c(-c2cccc(C(F)(F)F)c2)nc2c(C(=O)Nc3ccnc(N4CCCC4)c3)cccc2c1=O [Compound 349]	A (Fold activation>200%)	A (EC1.5<1.0 μM)
Cn1ccnc1-c1nc2c(C(=O)Nc3ccccn3)cccc2c(=O)n1C [Compound 227]	B (Fold Activation<200%)	C (EC1.5>25 μM)
Cn1c(-c2cccc(C(F)(F)F)c2)nc2c(NC(=O)c3ccncc3)cccc2c1=O [Compound 237]	B (Fold Activation<200%)	B (EC1.5 1-25 μM)
O=C(Nc1ccccn1)c1cccc2c(=O)n(CCN3CCCC3)c(-c3cccc(C(F)(F)F)c3)nc12 [Compound 272]	B (Fold Activation<200%)	B (EC1.5 1-25 μM)
Cn1c(-c2cccc(C(F)(F)F)c2)nc2c(C(=O)Nc3ncc(CN4CCOCC4)s3)cccc2c1=O [Compound 308]	A (Fold activation>200%)	B (EC1.5 1-25 μM)
Cn1c(-c2cccc(C(F)(F)F)c2)nc2c(C(=O)Nc3cccc(CN4CCNCC4)n3)cccc2c1=O [Compound 348]	A (Fold activation>200%)	A (EC1.5<1.0 μM)
Cn1c(-c2cccc(C(F)(F)F)c2)nc2c(C(=O)Nc3ccc(CN4CCOCC4)nc3)cccc2c1=O [Compound 301]	A (Fold activation>200%)	B (EC1.5 1-25 μM)
Cn1c(-c2cccc(C(F)(F)F)c2)nc2c(C(=O)Nc3cccc(OCC(O)CO)c3)cccc2c1=O (stereo not shown) [Compound 286]	A (Fold activation>200%)	A (EC1.5<1.0 μM)
Cn1c(-c2cccc(OC(F)(F)F)c2)nc2c(NC(=O)c3cnccn3)cccc2c1=O [Compound 204]	A (Fold activation>200%)	A (EC1.5<1.0 μM)
O=C(Nc1cccc2c(=O)cc(-c3ccccc3C(F)(F)F)[nH]c12)c1cscn1 [Compound 444]	A (Fold activation>200%)	A (EC1.5<1.0 μM)
Cn1c(-c2ncccn2)nc2c(NC(=O)c3cnccn3)cccc2c1=O [Compound 282]	B (Fold Activation<200%)	C (EC1.5>25 μM)
O=C(Nc1ccncn1)c1cccc2c(=O)cc(-c3cccc(C(F)(F)F)c3)[nH]c12 [Compound 415]	A (Fold activation>200%)	A (EC1.5<1.0 μM)
CN1CCCC1C(=O)Nc1cccc2c(=O)n(C)c(-c3cccc(C(F)(F)F)c3)nc12 (stereo not shown) [Compound 331]	B (Fold Activation<200%)	B (EC1.5 1-25 μM)
O=C(Nc1cccc2c(=O)n(CCN3CCCC3)c(-c3cccc(C(F)(F)F)c3)nc12)c1cnccn1 [Compound 235]	A (Fold activation>200%)	B (EC1.5 1-25 μM)
Cn1c(-c2cccc(C(F)(F)F)c2)nc2c(NC(=O)c3cccc(CN4CCOCC4)n3)cccc2c1=O [Compound 332]	A (Fold activation>200%)	A (EC1.5<1.0 μM)
O=C(Nc1cccnc1)c1cccc2c(=O)cc(-c3cccc(OC(F)F)c3)[nH]c12 [Compound 443]	A (Fold activation>200%)	A (EC1.5<1.0 μM)
Cn1c(-c2cscn2)nc2c(C(=O)Nc3ccccn3)cccc2c1=O [Compound 225]	B (Fold Activation<200%)	C (EC1.5>25 μM)

Compound	% Fold Act. (percent maximum fold activation)	EC1.5 μM
O=C(Nc1nccs1)c1cccc2c(=O)cc(-c3ccccc3OC(F)F)[nH]c12 [Compound 436]	A (Fold activation>200%)	A (EC1.5<1.0 μM)
CN1CCCCC1C(=O)Nc1cccc2c(=O)n(C)c(-c3cccc(C(F)(F)F)c3)nc12 (stereo not shown) [Compound 343]	B (Fold Activation<200%)	C (EC1.5>25 μM)
Cn1c(-c2cscn2)nc2c(NC(=O)c3cnccn3)cccc2c1=O [Compound 283]	B (Fold Activation<200%)	C (EC1.5>25 μM)
O=C(NC1CCOC1=O)c1cccc2c(=O)cc(-c3cccc(C(F)(F)F)c3)[nH]c12 (stereo not shown) [Compound 413]	B (Fold Activation<200%)	B (EC1.5 1-25 μM)
Cn1c(-c2cccc(C(F)(F)F)c2)nc2c(C(=O)Nc3cnccn3)cccc2c1=O [Compound 219]	A (Fold activation>200%)	A (EC1.5<1.0 μM)
Cn1cnc(C(=O)Nc2cccc3c(=O)n(C)c(-c4cccc(C(F)(F)F)c4)nc23)c1 [Compound 246]	A (Fold activation>200%)	A (EC1.5<1.0 μM)
Cn1c(-c2ccccc2OC(F)(F)F)nc2c(NC(=O)c3cnccn3)cccc2c1=O [Compound 274]	A (Fold activation>200%)	A (EC1.5<1.0 μM)
Cn1c(-c2ccccc2OC(F)F)nc2c(C(=O)Nc3ccccn3)cccc2c1=O [Compound 327]	A (Fold activation>200%)	B (EC1.5 1-25 μM)
O=C(Nc1cccc2c(=O)[nH]c(-c3cccc(C(F)(F)F)c3)nc12)c1cnccn1 [Compound 231]	B (Fold Activation<200%)	C (EC1.5>25 μM)
Cn1c(-c2cccc(C(F)(F)F)c2)nc2c(NC(=O)c3cccnc3)cccc2c1=O [Compound 240]	A (Fold activation>200%)	B (EC1.5 1-25 μM)
Cn1c(-c2ccccc2Cl)nc2c(C(=O)Nc3ccccn3)cccc2c1=O [Compound 242]	B (Fold Activation<200%)	B (EC1.5 1-25 μM)
O=C(Nc1nccs1)c1cccc2c(=O)cc(-c3cccc(C(F)F)c3)[nH]c12 [Compound 431]	A (Fold activation>200%)	A (EC1.5<1.0 μM)
CCc1nnc(NC(=O)c2cccc3c(=O)cc(-c4cccc(C(F)(F)F)c4)[nH]c23)s1 [Compound 400]	A (Fold activation>200%)	A (EC1.5<1.0 μM)
Cn1c(-c2cccc(C(F)(F)F)c2)nc2c(NC(=O)c3ncccn3)cccc2c1=O [Compound 249]	A (Fold activation>200%)	A (EC1.5<1.0 μM)
O=C(Nc1ccccn1)c1cccc2c(=O)[nH]c(-c3ccccc3OC(F)(F)F)nc12 [Compound 320]	A (Fold activation>200%)	A (EC1.5<1.0 μM)
Cn1c(-c2cccc(C(F)(F)F)c2)nc2c(C(=O)Nc3ccc(CN4CC[C@H](F)C4)cn3)cccc2c1=O [Compound 346]	A (Fold activation>200%)	A (EC1.5<1.0 μM)
Cn1cc(-c2nc3c(NC(=O)c4cnccn4)cccc3c(=O)n2C)cn1 [Compound 291]	B (Fold Activation<200%)	C (EC1.5>25 μM)
Cc1ncsc1-c1nc2c(C(=O)Nc3ccccn3)cccc2c(=O)n1C [Compound 226]	B (Fold Activation<200%)	B (EC1.5 1-25 μM)
Cn1c(-c2ccc(C(F)(F)F)cc2)nc2c(NC(=O)c3cnccn3)cccc2c1=O [Compound 251]	B (Fold Activation<200%)	B (EC1.5 1-25 μM)
Cn1c(-c2cccc(C(F)(F)F)c2)nc2c(NC(=O)c3cnccn3)cccc2c1=O [Compound 202]	A (Fold activation>200%)	A (EC1.5<1.0 μM)
